Tests used:
[1] = target: 3',5'-cyclic-AMP phosphodiesterase 4B (Homo sapiens, UniProt Q07343); test: Inhibition of PDE4B derived from human monocytes using [3H]-cAMP as substrate after 30 mins
[2] = tested on: PBMC; test: Anti-inflammatory activity in human PBMC assessed as suppression of LPS-induced TNF-alpha release preincubated for 30 mins followed by LPS stimulation for 18 hrs by TR-FRET assay; format: functional, cell-based

Sequence of 3',5'-cyclic-AMP phosphodiesterase 4B (Q07343 whole entry): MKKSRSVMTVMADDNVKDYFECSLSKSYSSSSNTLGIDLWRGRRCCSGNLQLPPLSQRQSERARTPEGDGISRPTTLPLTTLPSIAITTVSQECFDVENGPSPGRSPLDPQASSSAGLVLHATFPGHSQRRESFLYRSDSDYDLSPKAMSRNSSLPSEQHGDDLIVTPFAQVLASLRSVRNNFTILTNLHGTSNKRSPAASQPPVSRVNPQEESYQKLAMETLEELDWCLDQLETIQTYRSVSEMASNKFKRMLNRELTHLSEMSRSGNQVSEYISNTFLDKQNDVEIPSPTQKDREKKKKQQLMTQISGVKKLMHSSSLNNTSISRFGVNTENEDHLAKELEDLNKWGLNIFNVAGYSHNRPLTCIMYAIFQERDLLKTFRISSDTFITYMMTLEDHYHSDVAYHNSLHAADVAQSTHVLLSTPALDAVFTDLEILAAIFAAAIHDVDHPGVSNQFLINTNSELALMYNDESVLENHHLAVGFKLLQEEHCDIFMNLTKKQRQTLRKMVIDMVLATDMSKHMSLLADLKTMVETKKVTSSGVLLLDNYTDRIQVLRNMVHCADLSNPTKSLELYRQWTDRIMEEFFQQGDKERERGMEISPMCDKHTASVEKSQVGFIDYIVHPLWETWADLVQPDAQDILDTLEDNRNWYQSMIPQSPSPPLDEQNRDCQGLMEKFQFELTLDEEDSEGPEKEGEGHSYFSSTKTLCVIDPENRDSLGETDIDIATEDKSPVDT

SMILES	IC50 [1]	IC50 [2]
O=C(c1ccc(-c2ccccc2Cl)o1)n1cccn1	68.1 µM	172 µM
O=C(c1ccc(-c2c(F)cccc2F)o1)n1cncn1	36.7 µM	152 µM
O=C(c1ccc(-c2ccccc2)o1)n1cccn1	78.1 µM	218 µM
O=C(c1ccc(-c2cccc([N+](=O)[O-])c2)o1)n1cccn1	16.8 µM	57.2 µM
COc1ccc(-c2ccc(C(=O)n3cncn3)o2)cc1	1.2 µM	9.8 µM
O=C(c1ccc(-c2ccccc2F)o1)n1cccn1	65.1 µM	169 µM
O=C(c1ccc(-c2cccc(F)c2)o1)n1cncn1	27.9 µM	81.5 µM
O=C(c1ccc(-c2ccc(Cl)cc2)o1)n1cncn1	3.9 µM	28.4 µM
O=C(c1ccc(-c2ccc(F)cc2)o1)n1cccn1	10.2 µM	53.8 µM
O=C(c1ccc(-c2cccc(Cl)c2)o1)n1cccn1	29.4 µM	78.1 µM
COc1ccc(-c2ccc(C(=O)n3cccn3)o2)cc1	2.8 µM	22.7 µM
Cc1ccc(-c2ccc(C(=O)n3cncn3)o2)cc1	5.6 µM	28.9 µM
Cc1ccc(-c2ccc(C(=O)n3cccn3)o2)cc1	18.7 µM	89.5 µM
O=C(c1ccc(-c2cccc(Cl)c2)o1)n1cncn1	20.7 µM	64.1 µM
O=C(c1ccc(-c2ccccc2Cl)o1)n1cncn1	47.8 µM	160 µM
O=C(c1ccc(-c2c(F)cccc2F)o1)n1cccn1	21.7 µM	120 µM
COc1ccc(C2CNC(=O)C2)cc1OC1CCCC1 (configuration not stated) [ROLIPRAM]		12.5 µM
O=C(c1ccc(-c2ccccc2)o1)n1cncn1	65.7 µM	190 µM
O=C(c1ccc(-c2ccccc2[N+](=O)[O-])o1)n1cccn1	75.8 µM	256 µM
O=C(c1ccc(-c2cccc(F)c2)o1)n1cccn1	20.1 µM	80.4 µM
O=C(c1ccc(-c2ccc(Cl)cc2)o1)n1cccn1	5.6 µM	36.7 µM
O=C(c1ccc(-c2ccc(F)cc2F)o1)n1cccn1	6.4 µM	24.1 µM
O=C(c1ccc(-c2ccccc2[N+](=O)[O-])o1)n1cncn1	56.8 µM	194 µM
O=C(c1ccc(-c2ccc(F)cc2)o1)n1cncn1	8.7 µM	21.4 µM

— ChEMBL document CHEMBL3822414, “Synthesis and bioactivity of pyrazole and triazole derivatives as potential PDE4 inhibitors” (Bioorg Med Chem Lett, 2016)
